Here are results for one compound from BindingDB's records for doi:10.1021/jm0003440 (Merck Frosst Centre For Therapeutic Research, 2001).

Structures are written as SMILES.

The nature of the assay: Inhibitory activity tested against Human Cathepsin K receptor using bone resorption assay.

In the case of `N#CN1CCC(NC(=O)OCc2ccccc2)C1` (stereo unspecified) [(1-Cyano-pyrrolidin-3-yl)-carbamic acid benzyl ester], the IC50 – broadly, the concentration needed to halve the response being measured – was 1410 nM.
